Laboratory results as given in US10463709B2, “Short synthetic peptide for treating diseases and/or conditions related to angiogenesis” (MacKay Memorial Hospital, priority 2015, dated 2019).
Square brackets hold non-standard residues; d marks the D form. Ends that are not written are not given here.

What was measured:
[1] = test system: STZ-induced diabetic mice; assay: Vascular abnormalities in the retina of diabetic mice; format: in vivo; conditions: for Fluorescence Intensity (Fold): leaked FITC-BSA in entire retina, vs vehicle
Method: Diabetic mice were generated by a single intraperitoneal injection of streptozotocin (STZ) (150 mg/kg body weight). STZ was freshly prepared in 0.1 M citrate buffer (pH 4.5). After injection, mice were supplied with 10% sucrose overnight to prevent sudden hypoglycemic shock. After 1 week, mice with non-fasting blood glucose levels >500 mg/dl were defined as diabetic and used for the experiments. DMSO Vehicle or the present synthetic peptide (10 mg/kg; n≥3 per peptide) were administered by intraperitoneal injections twice a day. After treatment for 24 h, mice were intraperitoneal injected with 100 mg/kg of BSA-FITC for further 30 min.
To determine vascular lesions (hemorrhaging areas) in retina, the animals were euthanized by CO2 inhalation, and the eyes were enucleated and fixed by 2% paraformaldehyde for 2 hr and flat-mounted onto glass slides to obtain optical sections by an epifluorescence microscopy. Vascular lesions in the retina was scored in all four retinal quadrants of flat mounts by using a 20× objective. Six microscopic fields were sampled in each quadrant in both the central and peripheral retina, and data were presented as the average number of lesions/retina.
Vascular FITC-BSA leakage was determined by a fluorescence spectrofluorometer based on standard curves of FITC-BSA at excitation and emission wavelengths of 488 and 535 nm, respectively, and then normalized to a non-injected control retina. For this analysis, retinas were dissected from treated and untreated diabetic mice after BSA-FITC injections, and each was solubilized in 300 μL ice-cold PBS.
Diabetic retinopathy is characterized by blood-retinal barrier (BRB) breakdown and neurotoxicity. To evaluate the possible beneficial effect of the present synthetic peptides on diabetic retinopathy, STZ-induced diabetic mice were intraperitoneally injected with 7-mer peptide, DMSO vehicle or the control peptide (SEQ ID NO: 22). The retinal vascular abnormality was then monitored by detecting the extravasation of BSA-fluorescein. Results are depicted in FIG. 11.

RPMI8226 cells = assay: MTT assay, VEGF-induced proliferation of RPMI8226 cells; format: cell-based; conditions: for effect on VEGF-induced proliferation of RPMI8226 cells: VEGF 50 ng/ml, 25 μM peptide, 24 hrs, MTT; for biological activity of the analogue relative to the 7-mer (summary statement of the description): summary of Example 1 findings
Method: The multiple myeloma line RPMI8226 was cultivated in complex medium (RPMI1640) supplemented with 10% (vol/vol) heat-inactivated fetal calf serum (Invitrogen), 50 μg/mL penicillin, 50 μg/mL streptomycin, and 2 mM L-glutamine at 37° C. in a 5% CO2 atmosphere. RPMI8226 cells were cultured in serum-free RPMI1640 medium for 24 hrs, and then cells were seeded in 48-well culture plates (3×10^5 cells/well) and continued to culture in 0.5 ml fresh serum-free RPMI1640 medium containing 25 μM peptide for another 24 hrs. The cell viability was determined by the MTT assay. Briefly, 50 μL of MTT stock solution (50 μL) (5 mg MTT dissolved in 1 ml of sterile PBS) was added to each culture well. In addition, 50 μL of the MTT stock solution was added in 500 μL of medium as the negative control. The culture plate was incubated at 37° C. for 4 hours. Aliquots (450 μl) from each sample were taken to a new well of 48-well culture plate, adding 100 μL DMSO, mixing thoroughly using the pipette and reacted at 37° C. for 20 min and read absorbance at 570 nm. These synthesized peptides were then subject to MTT assay, in which vascular endothelial growth factor (VEGF) was used as a stimulant to induce cell proliferation. Results are depicted in FIGS. 1 to 4.

B16-F10 melanoma cells = assay: Experimental pulmonary metastasis in mice; format: in vivo, C57BL/6 mice; conditions: for effect on number of colonies on the surface of the lung / in vivo metastasis / No. lung colonies: 10 mg/Kg intraperitoneal every 2 days; for No. lung colonies: day 8, n = 5; for Inhibition (%): lung colonies vs vehicle, 10 mg/Kg
Method: 2×10^5 B16-F10 cells were suspended in 100 μl PBS and checked for viability using trypan blue staining (>95%). The B16-F10 cells were then injected into the tail vein of the 6-week-old female C57BL/6 mice; while vehicle (DMSO), the present synthetic peptide or the control peptide (10 mg/kg) were administered by intraperitoneal injections every 2 days after the B16-F10 cell injection. Five mice were used for each group. On day 8 after inoculation of cells, the lungs were removed, and the number of visible colonies on the surface of the lungs were counted using a dissecting microscope.
Metastasis is the foremost cause of death from cancer. In this example, to investigate the efficacy of the present synthetic peptide on the metastasis of cancer cells, B16-F10 cells were injected into the tail vein of a mouse, the animal was then treated with the present synthetic peptide (7-mer or 7-mer DD, 10 mg/Kg) by intraperitoneal injections every 2 days. Upon completion of the experiment, the lungs were then removed and the tumor colonies visible to the eyes were then counted. Results are depicted in FIG. 10.

HUVECs [2] = assay: VEGF-induced HUVEC proliferation assay; format: cell-based; conditions: VEGF (10 ng/mL) + 25 μM peptide; vs untreated HUVECs
Method: HUVECs (1×10^5 cells per well of 6-well plate) were grown in Medium 200 with Low Serum Growth Supplement (LSGS Kit, supplement contains 1.9% FBS, 3 ng/ml bFGF, 10 μg/ml heparin, 1 μg/ml hydrocortisone, and 10 ng/ml EGF). Culture plates were coated with 2% gelatin. Cells (passages 4-8) were cultured at 37° C. in a humidified atmosphere of 5% CO2. […]
HUVECs (1×10^5 cells per well of 6-well plate) in Medium 200 supplemented with LSGS Kit were allowed to grow onto 6-well plates coated with 2% gelatin for 24 hours at 37° C. in 5% CO2. The culture medium was then replaced with serum free Medium 200 overnight. […] Then, cells were harvested by trypsin-EDTA and counted using a hemocytometer.

HUVECs [3] = assay: Endothelial cell capillary-like tube formation assay; format: cell-based; conditions: VEGF (10 ng/mL) + 25 μM peptide; vs untreated HUVECs
Method: To examine the effect of the present synthetic peptide on in vitro angiogenesis, growth factor-reduced matrigel was pipetted into pre-chilled 24-well plates (150 μl matrigel per well) and polymerized for 45 min at 37° C. […] In this experiment, images were captured using a Cannon camera on Zeiss inverted microscope with magnification ×40 and tube length was quantified using Image analysis software (Image-Pro Plus). The control peptide as used in the present invention has the sequence of DLYRVR (SEQ ID NO: 10).

rat aortic ring = assay: Rat aortic ring assay (ex vivo microvessel sprouting); design: species or system Sprague Dawley rats; conditions: beta-FGF induced; peptide 50 μM
Method: Thoracic aortas were removed from euthanized 10-week-old male Sprague Dawley rats, and gently stripped off periaortic fibroadipose tissue. Aortas were sectioned to about 2-mm length rings, which were embedded in Matrigel. To induce angiogenesis, human recombinant bFGF (50 ng/ml) or bFGF plus the peptide (50 μM) was added in Matrigel. Gel (200 μl) containing an aortic ring was polymerized in 12-well plates (37° C. for 30 min) and then incubated with 1 ml of Medium 200 supplemented with 100 units/ml penicillin, and […] streptomycin and 2% FBS at 37 ° C. The cultures were propagated at 37 ° C. in a humidified incubator for up to 7 days. Sprouts were recorded using an inverted microscope platform (Leica DM16000B) with bright-field optics. Each ring was scored by three independent observers on a scale 0-4 depending on the degree of sprouting vessel being observed (0=no sprouting, 4=profuse sprouting). The experiment was repeated in triplicates.

| Substance | extravasation of FITC-BSA [1] | Fluorescence Intensity (Fold) [1] [Fold] | effect on VEGF-induced proliferation of RPMI8226 cells (RPMI8226 cells) | effect on number of colonies on the surface of the lung / in vivo metastasis (B16-F10 melanoma cells) | No. lung colonies (B16-F10 melanoma cells) | Inhibition (%) (B16-F10 melanoma cells) | Cell number (Fold) (HUVECs [2]) | Tube length (Fold) (HUVECs [3]) | level of sprouting microvessels around the aortic ring (rat aortic ring) | biological activity of the analogue relative to the 7-mer (summary statement of the description) (RPMI8226 cells) |
| --- | --- | --- | --- | --- | --- | --- | --- | --- | --- | --- |
| NH2-Asp-Leu-Trp-Arg-Ile-Arg-Ser-COOH (DLWRIRS; not fully specified (N-terminus, C-terminus); printed as NH2-Asp-Leu-Trp-Arg-Ile-Arg-Ser-COOH) [7-mer WI] | may significantly prevent | 0.31 ± 0.085 | could sustain 7-mer bioactivity, only partly | may suppress in vivo metastasis | 74 ± 24.3 | 67.3 | 0.91 ± 0.078 | 1.23 ± 0.22 | inhibited |  |
| NH2-Asp-Leu-Tyr-Arg-Gln-Lys-Ser-COOH (DLYRQKS; not fully specified (N-terminus, C-terminus); printed as NH2-Asp-Leu-Tyr-Arg-Gln-Lys-Ser-COOH) [7-mer QK] | may significantly prevent | 0.31 ± 0.081 | could sustain 7-mer bioactivity, only partly | may suppress in vivo metastasis | 82 ± 16.3 | 63.5 | 1.09 ± 0.067 | 1.46 ± 0.31 | inhibited |  |
| NH2-Asp-Leu-Tyr-Arg-Leu-Arg-Ser-COOH (DLYRLRS; not fully specified (N-terminus, C-terminus); printed as NH2-Asp-Leu-Tyr-Arg-Leu-Arg-Ser-COOH) [7-mer (V→L)] | may significantly prevent | 0.33 ± 0.079 | could sustain 7-mer bioactivity, only partly | may suppress in vivo metastasis | 75 ± 30.4 | 66.8 | 1.02 ± 0.049 | 1.41 ± 0.37 | inhibited | relatively the same bioactivity |
| NH2-Asp-Leu-Tyr-Arg-Met-Lys-Ser-COOH (DLYRMKS; not fully specified (N-terminus, C-terminus); printed as NH2-Asp-Leu-Tyr-Arg-Met-Lys-Ser-COOH) [7-mer MK] | may significantly prevent | 0.37 ± 0.095 | could sustain 7-mer bioactivity, only partly | may suppress in vivo metastasis | 79 ± 26.4 | 65.0 | 1.04 ± 0.062 | 1.18 ± 0.31 | inhibited |  |
| NH2-Asp-Leu-Tyr-Arg-Val-Arg-(D-Ser)-COOH (H-DLYRVR[dS]-OH) [7-mer DS] |  | 0.96 ± 0.12 |  |  | 245 ± 30.4 | −9.0 | 1.59 ± 0.084 | 3.45 ± 0.26 | unaffected | lose its biological activity |
| NH2-Asp-Leu-Tyr-Lys-Val-Pro-Ser-COOH (DLYKVPS; not fully specified (N-terminus, C-terminus); printed as NH2-Asp-Leu-Tyr-Lys-Val-Pro-Ser-COOH) [7-mer KP] | may significantly prevent | 0.37 ± 0.13 | could sustain 7-mer bioactivity, only partly | may suppress in vivo metastasis | 69 ± 11.5 | 69.3 | 1.02 ± 0.075 | 1.62 ± 0.29 | inhibited |  |
